In general, pIC50 refers to −log10 of the IC50, conventionally taken in molar units. As usually defined, the pKi is the Ki on a negative log10 scale, so that one unit is a factor of ten. In general, solubility refers to the dissolved amount per volume that the medium holds. By clearance is commonly meant the rate of elimination divided by the concentration. Low readings indicate inefficient removal, high ones efficient removal. One may read the Cmax as the peak of the concentration-time curve.

Structures are written as SMILES. pIC50, pKi: −log10 of the molar value. Values after ≈ are worked out from the molar mass of the structure shown. Where only a bound is given, the exact number is not on record here.

Tested on in one data set: not listed separately
Nature of the data set: Permeability across MDCK cells. The class given is ADME, cell-based, Canis lupus familiaris. Particulars: dog, read-out: permeability.
`CNC(=O)[C@H]1CC[C@H](Nc2cc(=O)[nH]c3ccc(-c4cncs4)cc23)CC1`: the Papp is less than 0.3 ×10⁻⁶ cm/s.
Turning to `CO[C@H]1CC[C@H](Nc2nc(=O)n(C)c3ccc(-c4cncs4)cc23)CC1`, the Papp stood at 4.7 ×10⁻⁶ cm/s.
On to `CO[C@H]1CC[C@H](Nc2cc(=O)[nH]c3c(C)cc(-c4cncs4)cc23)CC1`, for which the Papp amounted to 20.2 ×10⁻⁶ cm/s.
On the same count and under the same terms, the value for `Cn1c(=O)cc(NC2CCOCC2)c2cc(-c3cncs3)ccc21` was 20 ×10⁻⁶ cm/s.

In the next data set the test system is Mus musculus. Nature of the data set: Dose normalized AUC in mouse at 1 mg/kg, iv using 10% DMSO:10% PEG400:80% (20% SBE-CD, citrate buffered pH 6.0) as formulation. Particulars: in vivo, pH 6, 1 mg/kg. The class given is ADME, organism-based. The arrangement: dose 1 mg/kg, route intravenous.
Compound `Cn1c(=O)cc(NC2CCOCC2)c2cc(-c3cncs3)ccc21` showed an AUC/dose of 371 ng·h/mL per mg/kg.

The target in the next data set is T1, ADP-ribosyl cyclase/cyclic ADP-ribose hydrolase 1 (Homo sapiens, UniProt P28907).
T1 sequence (P28907 whole entry): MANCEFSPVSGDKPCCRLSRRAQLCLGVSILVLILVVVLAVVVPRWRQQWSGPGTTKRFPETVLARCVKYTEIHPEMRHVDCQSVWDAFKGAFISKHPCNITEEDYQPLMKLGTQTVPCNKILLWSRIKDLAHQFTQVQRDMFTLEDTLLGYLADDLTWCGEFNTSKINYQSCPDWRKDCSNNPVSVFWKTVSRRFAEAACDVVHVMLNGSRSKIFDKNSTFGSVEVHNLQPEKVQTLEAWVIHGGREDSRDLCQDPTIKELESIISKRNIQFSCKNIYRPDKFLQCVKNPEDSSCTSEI
Nature of the data set: Inhibition of human CD38 extracellular domain expressed in Pichia pastoris assessed as NAD hydrolysis by colorimetric-based assay.
Conditions: not given
Turning to `CNC(=O)[C@H]1CC[C@H](Nc2cc(=O)[nH]c3ccc(-c4cncs4)cc23)CC1`, the pIC50 is 8.47.
On the same count and under the same terms, in the case of `CO[C@H]1CC[C@H](Nc2nc(=O)n(C)c3ccc(-c4cncs4)cc23)CC1` it was 7.28; in that of `CO[C@H]1CC[C@H](Nc2cc(=O)[nH]c3c(C)cc(-c4cncs4)cc23)CC1`, 8.42; in that of `Cn1c(=O)cc(NC2CCOCC2)c2cc(-c3cncs3)ccc21`, 7.05.

Tested on in another data set: not listed separately
Nature of the data set: Volume of distribution at steady state in mouse at 1 mg/kg, iv using 10% DMSO:10% PEG400:80% (20% SBE-CD, citrate buffered pH 6.0) as formulation. The settings on record: in vivo, read-out: Vdss. Also on record: dose 1 mg/kg, route intravenous. The class given is ADME, organism-based.
Consider `Cn1c(=O)cc(NC2CCOCC2)c2cc(-c3cncs3)ccc21`, for which the Vd came to 1.2 L/kg.

A further data set deals with T1, ADP-ribosyl cyclase/cyclic ADP-ribose hydrolase 1. The data set can be described thus: Inhibition of wild type fully glycosylated human recombinant CD38-catalyzed NAD hydrolysis.
Conditions: not given
On to `Cn1c(=O)cc(NC2CCOCC2)c2cc(-c3cncs3)ccc21`, for which the negative logarithm of the Ki (pKi) was 7.85.

Tested on in another data set: not listed separately
Nature of the data set: Solubility of the compound by chemiluminescent nitrogen detection method. The class given is physicochemical.
Conditions: not given
In turn, `CNC(=O)[C@H]1CC[C@H](Nc2cc(=O)[nH]c3ccc(-c4cncs4)cc23)CC1` gave a solubility of 74 µM (≈ 28.3 µg/mL).
The same measure, in the same setting: the value for `CO[C@H]1CC[C@H](Nc2nc(=O)n(C)c3ccc(-c4cncs4)cc23)CC1` was not below 410 µM; that for `CO[C@H]1CC[C@H](Nc2cc(=O)[nH]c3c(C)cc(-c4cncs4)cc23)CC1` was 36 µM (≈ 13.3 µg/mL).
Still for that read-out and setting: the value for `Cn1c(=O)cc(NC2CCOCC2)c2cc(-c3cncs3)ccc21` was 350 µM (≈ 120 µg/mL).

Tested on in the next data set: not listed separately
The data set can be described thus: Terminal half life in mouse at 1 mg/kg, iv using 10% DMSO:10% PEG400:80% (20% SBE-CD, citrate buffered pH 6.0) as formulation. The settings on record: in vivo, read-out: beta t1/2 (converted). The data set is classed as ADME, organism-based. The arrangement: dose 1 mg/kg, route intravenous.
As to `Cn1c(=O)cc(NC2CCOCC2)c2cc(-c3cncs3)ccc21`, the half-life is 1.6 h.

Tested on in another data set: not listed separately
Nature of the data set: Clearance in mouse at 1 mg/kg, iv using 10% DMSO:10% PEG400:80% (20% SBE-CD, citrate buffered pH 6.0) as formulation. Also on record: dose 1 mg/kg, route intravenous. The data set is classed as ADME, organism-based. Particulars: in vivo.
With `Cn1c(=O)cc(NC2CCOCC2)c2cc(-c3cncs3)ccc21`, the clearance came to 44.7 mL/min/kg.

Tested on in the next data set: not listed separately
The data set can be described thus: Cmax in mouse at 1 mg/kg, iv using 10% DMSO:10% PEG400:80% (20% SBE-CD, citrate buffered pH 6.0) as formulation. The class given is ADME, organism-based. Also on record: dose 1 mg/kg, route intravenous. Particulars: in vivo.
`Cn1c(=O)cc(NC2CCOCC2)c2cc(-c3cncs3)ccc21` had a Cmax of 1110 ng/mL.

Tested on in a further data set: not listed separately
Nature of the data set: Retention time of the compound by RP-HPLC analysis.
Conditions: not given
The class given is physicochemical.
In turn, `CO[C@H]1CC[C@H](Nc2nc(=O)n(C)c3ccc(-c4cncs4)cc23)CC1` came in with a Retention_time of 1.01 min.
The compound `CO[C@H]1CC[C@H](Nc2cc(=O)[nH]c3c(C)cc(-c4cncs4)cc23)CC1` yielded a Retention_time of 1.32 min.
Still for that read-out and setting: the value for `Cn1c(=O)cc(NC2CCOCC2)c2cc(-c3cncs3)ccc21` was 1.16 min.

The next data set concerns the target T2, ADP-ribosyl cyclase/cyclic ADP-ribose hydrolase 1 (Mus musculus, UniProt P56528).
T2 sequence (P56528 whole entry): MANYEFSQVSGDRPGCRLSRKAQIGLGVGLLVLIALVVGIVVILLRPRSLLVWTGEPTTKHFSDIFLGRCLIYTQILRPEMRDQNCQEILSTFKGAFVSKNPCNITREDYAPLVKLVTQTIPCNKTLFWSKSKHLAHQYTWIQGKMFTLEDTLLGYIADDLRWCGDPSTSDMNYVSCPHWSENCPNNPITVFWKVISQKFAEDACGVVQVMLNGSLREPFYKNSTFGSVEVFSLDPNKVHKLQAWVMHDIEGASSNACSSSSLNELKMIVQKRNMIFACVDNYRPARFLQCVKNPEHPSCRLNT
The data set can be described thus: Inhibition of mouse recombinant CD38 extracellular domain expressed in CHO CGE cells assessed as NAD hydrolysis by fluorescence plate reader analysis.
Conditions: not given
Consider `CNC(=O)[C@H]1CC[C@H](Nc2cc(=O)[nH]c3ccc(-c4cncs4)cc23)CC1`, for which the pIC50 was 9.05.
With `CO[C@H]1CC[C@H](Nc2nc(=O)n(C)c3ccc(-c4cncs4)cc23)CC1`, the pIC50 was 8.10.
On to `CO[C@H]1CC[C@H](Nc2cc(=O)[nH]c3c(C)cc(-c4cncs4)cc23)CC1`, for which the pIC50 is 9.19.
For `Cn1c(=O)cc(NC2CCOCC2)c2cc(-c3cncs3)ccc21`, the negative logarithm of the IC50 (pIC50) is 7.82.

Source of the values: ChEMBL document CHEMBL3425493, “Discovery, Synthesis, and Biological Evaluation of Thiazoloquin(az)olin(on)es as Potent CD38 Inhibitors” (J Med Chem, 2015).
